{
  "source": "paper PMC12150326",
  "about": "(The Journal of Organic Chemistry, 2025)",
  "key": {"[1]": {"test": "Experimental rotational energy barrier (thermal racemization, chiral HPLC)", "format": "physicochemical", "details": "135 °C in xylenes, Eyring equation", "protocol": "(aR)-6 and (aS)-6 were readily separable from one another and racemic iso -6 through the use of a polysaccharide-based chiral column (Diacel IA column) fitted to an automated medium-pressure liquid chromatography unit (Biotage Isolera Prime). Racemization was observable after heating a solution of either enantiopure (aR)- or (aS)-6 at 135 °C in xylenes over a few hours, and the rate of enantiomerization was extrapolated using the Eyring equation (ΔG ^‡ = 31.2 ± 0.3 kcal/mol). (aR)- and (aS )-iso-6 were separable in an analogous fashion using a chiral IC polysaccharide column. […] Thus, we can project that the rotational energy barrier is […] 37 kcal/mol. However, a computationally determined rotational barrier for iso -6 was 33.5 kcal/mol, which is roughly 3 kcal/mol more than that calculated for 6. One potential explanation for this notable difference in configurational stability is the greater double bond character of the methyl-bearing C^4–C^5 carbon of iso -6 in comparison to the C^5–C^6 in 6, as this would both shorten and rigidify this steric-bearing bond (see Scheme A/B for details). […] Studies have previously described differences in rotational barriers of DAAC (2) and its analogous isomer that, while less dramatic, are consistent with this trend (ΔG ^‡ = 22.1 vs 23.4 kcal/mol). […]\nIV. Experimental Profiling of Dihedral Angles\nRotational Energy Barrier Determination. A small spatula tip (~0.2 mg) of either (aR)-6 (aka, (aR)-MT-MTC) or (aS)-6 (aka, (aS)-MT-MTC) was diluted in 2 mL o-xylenes in a large vial containing a stir bar. The solution was heated to 135 °C open to air (temperature set to 135 °C, but fluxuated between 134 and 138 °C).\n~100 µL aliquots were extracted from solution using a syringe fitted with a long disposable needle at various time intervals and diluted into automated sample vials containing 500 µL CH2Cl2 to rapidly cool. These samples were monitored on Agilent with an analytical HPLC IA column, using 0 – 40% iPrOH in Hexanes gradient over 30 minutes at a flow rate of 0.5 mL/min, and a pressure of roughly 5 bar). Samples eluted approximately 20 minutes into run, with (aR)-6 eluting first, followed by (aS)-6. Three separate runs were carried out, two of which monitored racemization of (aS)-6, and one of which monitored racemization of (aR)- […]\nIntegration of the HPLC traces were used to determine enantiomeric excess by calculating the difference between the two enantiomers and dividing that by the sum of the two enantiomers, and then multiplying that […]\nprovided a slope (corresponding to kracemization), and dividing this number […] providing kenantiomerization (or kent in equation below), with units inverse seconds. A summary of data follows (Table S5), and representative chromatograms illustrated in section VI."}, "RPMI-8226": {"tested_on": "RPMI-8226", "parameters": "method as in NCI-60 database", "details": "RPMI-8226 ref NCI-60 database, cited from earlier work"}, "OVCAR-3": {"tested_on": "OVCAR-3", "parameters": "method as in NCI-60 database", "details": "OVCAR-3 ref NCI-60 database, cited from earlier work"}, "UO-31": {"tested_on": "UO-31", "parameters": "method as in NCI-60 database", "details": "UO-31 ref NCI-60 database, cited from earlier work"}, "HCT-116": {"tested_on": "HCT-116", "parameters": "method as in NCI-60 database", "details": "HCT-116 ref NCI-60 database, cited from earlier work"}, "MALME-3M": {"tested_on": "MALME-3M", "parameters": "method as in NCI-60 database", "details": "MALME-3M ref NCI-60 database, cited from earlier work"}, "NCI-H522": {"tested_on": "NCI-H522", "parameters": "method as in NCI-60 database", "details": "NCI-H522 ref NCI-60 database, cited from earlier work"}, "MDA-N": {"tested_on": "MDA-N", "parameters": "method as in NCI-60 database", "details": "MDA-N ref NCI-60 database, cited from earlier work"}, "NCI 60 cell lines": {"tested_on": "NCI 60 cell lines", "parameters": "method as in NCI-60 database", "details": "cited from earlier work; for _MID Log10LC50: mean graph midpoint ref NCI-60 database"}, "HS 578T": {"tested_on": "HS 578T", "parameters": "method as in NCI-60 database", "details": "HS 578T ref NCI-60 database; cited from earlier work"}, "PC-3": {"tested_on": "PC-3", "parameters": "method as in NCI-60 database", "details": "PC-3 ref NCI-60 database, cited from earlier work"}, "COLO 205": {"tested_on": "COLO 205", "parameters": "method as in NCI-60 database", "details": "COLO 205 ref NCI-60 database, cited from earlier work"}, "[2]": {"details": "mean graph ref NCI-60 database, listed as 757/1"}, "[3]": {"details": "mean graph ref NCI-60 database, listed as 757/9"}},
  "note": "“And” between values parts separate entries of the source, which are not always exact repeats. Identical values can stand only once. Like-named read-outs stand apart in the source and are kept apart here.",
  "data": [
    {"smiles": "COc1cc(C)c(-c2ccc(OC)c(=O)cc2C)c(OC)c1OC", "note": "(single isomer, unassigned) [(aR)-6]", "values": [
      {"measurement": "ΔG‡ of enantiomerization, experimental", "setting": "[1]", "value": "31.2 ± 0.3", "unit": "kcal/mol"}
    ]},
    {"smiles": "COc1cc2c(c(OC)c1OC)-c1ccc(OC)c(=O)cc1[C@@H](NC(C)=O)CC2", "note": "[Colchicine, (−)-Colchicine]", "values": [
      {"measurement": "GI50", "setting": "RPMI-8226", "value": "< 10", "unit": "nM"},
      {"measurement": "Log10GI50", "setting": "RPMI-8226", "value": "< -8", "unit": "Molar"},
      {"measurement": "Log10LC50", "setting": "RPMI-8226", "value": "> -4.00", "unit": "Molar"},
      {"measurement": "Log10TGI", "setting": "RPMI-8226", "value": "> -4.00", "unit": "Molar"},
      {"measurement": "Log10GI50", "setting": "RPMI-8226; listed as 757/1", "value": "< -8.00", "unit": "Molar"},
      {"measurement": "Log10GI50", "setting": "OVCAR-3; listed as 757/1", "value": -7.58, "unit": "Molar"},
      {"measurement": "Log10LC50", "setting": "OVCAR-3; listed as 757/1", "value": "> -4.00", "unit": "Molar"},
      {"measurement": "Log10TGI", "setting": "OVCAR-3; listed as 757/1", "value": -7.12, "unit": "Molar"},
      {"measurement": "Log10GI50", "setting": "OVCAR-3; listed as 757/9", "value": -7.81, "unit": "Molar"},
      {"measurement": "Log10LC50", "setting": "OVCAR-3; listed as 757/9", "value": "< -8.00", "unit": "Molar"},
      {"measurement": "Log10TGI", "setting": "OVCAR-3; listed as 757/9", "value": -7.44, "unit": "Molar"},
      {"measurement": "Log10GI50", "setting": "OVCAR-3; listed as 757/21", "value": "< -8.00 Molar and -7.73 Molar"},
      {"measurement": "GI50", "setting": "UO-31", "value": 513, "unit": "nM"},
      {"measurement": "Log10GI50", "setting": "UO-31", "value": -6.29, "unit": "Molar"},
      {"measurement": "Log10LC50", "setting": "UO-31", "value": "> -4.00", "unit": "Molar"},
      {"measurement": "Log10TGI", "setting": "UO-31; listed as 757/9", "value": -6.03, "unit": "Molar"},
      {"measurement": "Log10TGI", "setting": "UO-31; listed as 757/21", "value": "-4.19 Molar and > -4.00 Molar"},
      {"measurement": "GI50", "setting": "HCT-116", "value": 30, "unit": "nM"},
      {"measurement": "Log10GI50", "setting": "HCT-116", "value": -7.49, "unit": "Molar"},
      {"measurement": "Log10LC50", "setting": "HCT-116", "value": "> -4.00", "unit": "Molar"},
      {"measurement": "Log10GI50", "setting": "HCT-116; listed as 757/1", "value": -7.41, "unit": "Molar"},
      {"measurement": "Log10TGI", "setting": "HCT-116; listed as 757/1", "value": "> -4.00 Molar and -4.23 Molar"},
      {"measurement": "Log10GI50", "setting": "HCT-116; listed as 757/9", "value": -7.79, "unit": "Molar"},
      {"measurement": "Log10LC50", "setting": "MALME-3M", "value": "> -4.00", "unit": "Molar"},
      {"measurement": "Log10GI50", "setting": "MALME-3M; listed as 757/1", "value": -7.28, "unit": "Molar"},
      {"measurement": "Log10GI50", "setting": "MALME-3M; listed as 757/9", "value": -7.97, "unit": "Molar"},
      {"measurement": "GI50", "setting": "NCI-H522", "value": 10, "unit": "nM"},
      {"measurement": "Log10GI50", "setting": "NCI-H522", "value": -7.84, "unit": "Molar"},
      {"measurement": "Log10LC50", "setting": "NCI-H522", "value": "> -4.00", "unit": "Molar"},
      {"measurement": "Log10GI50", "setting": "NCI-H522; listed as 757/1", "value": -7.64, "unit": "Molar"},
      {"measurement": "Log10TGI", "setting": "NCI-H522; listed as 757/1", "value": -7.26, "unit": "Molar"},
      {"measurement": "Log10TGI", "setting": "NCI-H522; listed as 757/9", "value": -7.46, "unit": "Molar"},
      {"measurement": "Log10GI50", "setting": "NCI-H522; listed as 757/21", "value": "< -8.00 Molar and -7.98 Molar and -7.84 Molar"},
      {"measurement": "Log10GI50", "setting": "MDA-N", "value": "< -8.00", "unit": "Molar"},
      {"measurement": "Log10LC50", "setting": "MDA-N", "value": "> -4.00", "unit": "Molar"},
      {"measurement": "Log10TGI", "setting": "MDA-N; listed as 757/9", "value": "< -8.00 Molar and -7.91 Molar"},
      {"measurement": "Log10TGI", "setting": "MDA-N; listed as 757/21", "value": -4.25, "unit": "Molar"},
      {"measurement": "_MID Log10LC50", "setting": "NCI 60 cell lines; listed as 757/1", "value": "-4.07 Molar and -4.08 Molar"},
      {"measurement": "_MID Log10LC50", "setting": "NCI 60 cell lines; listed as 757/21", "value": "-4.0 Molar and -4.12 Molar and -4.01 Molar"},
      {"measurement": "Delta Log10GI50", "setting": "NCI 60 cell lines; [2]", "value": "0.39 and 0.68"},
      {"measurement": "Delta Log10LC50", "setting": "NCI 60 cell lines; [2]", "value": "3.26 and 3.02"},
      {"measurement": "Delta Log10TGI", "setting": "NCI 60 cell lines; [2]", "value": "3.04 and 2.76"},
      {"measurement": "Range Log10GI50", "setting": "NCI 60 cell lines; [2]", "value": 3.72},
      {"measurement": "Range Log10LC50", "setting": "NCI 60 cell lines; [2]", "value": "3.33 and 3.1"},
      {"measurement": "Range Log10TGI", "setting": "NCI 60 cell lines; [2]", "value": 3.41},
      {"measurement": "Range Log10GI50", "setting": "NCI 60 cell lines; [3]", "value": 1.41},
      {"measurement": "Range Log10LC50", "setting": "NCI 60 cell lines; [3]", "value": 4.0},
      {"measurement": "Range Log10TGI", "setting": "NCI 60 cell lines; mean graph ref NCI-60 database, listed as 757/21", "value": 3.89},
      {"measurement": "Log10LC50", "setting": "HS 578T", "value": "> -4.00", "unit": "Molar"},
      {"measurement": "GI50", "setting": "PC-3", "value": 24, "unit": "nM"},
      {"measurement": "Log10GI50", "setting": "PC-3", "value": -7.62, "unit": "Molar"},
      {"measurement": "Log10LC50", "setting": "PC-3", "value": "> -4.00", "unit": "Molar"},
      {"measurement": "Log10GI50", "setting": "PC-3; listed as 757/9", "value": -7.65, "unit": "Molar"},
      {"measurement": "Log10TGI", "setting": "PC-3; listed as 757/9", "value": -6.37, "unit": "Molar"},
      {"measurement": "Log10GI50", "setting": "PC-3; listed as 757/21", "value": -7.62, "unit": "Molar"},
      {"measurement": "Log10TGI", "setting": "PC-3; listed as 757/21", "value": "> -4.00", "unit": "Molar"},
      {"measurement": "GI50", "setting": "COLO 205", "value": 10, "unit": "nM"},
      {"measurement": "Log10GI50", "setting": "COLO 205", "value": -7.83, "unit": "Molar"},
      {"measurement": "Log10GI50", "setting": "COLO 205; listed as 757/1", "value": -5.74, "unit": "Molar"},
      {"measurement": "Log10GI50", "setting": "COLO 205; listed as 757/21", "value": "< -8.00 Molar and -7.83 Molar"},
      {"measurement": "Log10LC50", "setting": "COLO 205; listed as 757/21", "value": -7.24, "unit": "Molar"},
      {"measurement": "Log10TGI", "setting": "COLO 205; listed as 757/21", "value": -7.89, "unit": "Molar"}
    ]}
  ]
}
